Reference: PubChem BioAssay AID1421 (Emory University Molecular Libraries Screening Center, 2008)
Several values for one entry are separate records, joined by “and”; a condition that tells them apart may be missing. Equal values may be shown once. Activity calls are given as the source filed them. How the calls were made is not given here.

Target: Prostaglandin E2 receptor EP2 subtype (Homo sapiens) (UniProt P43116)
Assay: compounds shifting PGE2 potency at EP2 – cell-based, human EP2, PGE2 EC50 shift, dose response (AID 1421)
Conditions: EP2-expressing cells, PGE2 EC50 shift by compound

Chain of Prostaglandin E2 receptor EP2 subtype (Homo sapiens) (P43116 whole entry, looked up): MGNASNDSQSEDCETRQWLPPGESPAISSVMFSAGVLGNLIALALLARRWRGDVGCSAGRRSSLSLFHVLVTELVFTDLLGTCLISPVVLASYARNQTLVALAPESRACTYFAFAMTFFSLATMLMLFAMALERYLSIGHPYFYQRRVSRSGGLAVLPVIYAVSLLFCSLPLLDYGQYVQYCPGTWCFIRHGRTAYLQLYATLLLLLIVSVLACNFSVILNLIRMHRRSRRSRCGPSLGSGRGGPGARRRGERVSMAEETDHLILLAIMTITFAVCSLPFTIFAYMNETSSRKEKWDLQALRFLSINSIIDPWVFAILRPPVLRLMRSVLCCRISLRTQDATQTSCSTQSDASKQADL

| Structure (SMILES) | outcome |
| --- | --- |
| COc1cc(-c2nc(-c3cccc(C)c3)no2)cc(OC)c1OC | active |
| COc1ccc(-c2cc(C(F)(F)F)nc(N3CCOCC3)n2)cc1OC | active |
| Cc1cc(C#N)c(SCC(N)=O)nc1-c1ccc(F)cc1 | active |
| CC1CCc2c(sc(N)c2C(=O)OC(C)C)C1 (configuration not stated) | active |
| CC(C)OC(=O)c1c(NC(=O)c2ccco2)sc2c1CCCCC2 | active |
| CCOC(=O)c1cc(CC)sc1NC(=O)c1ccc2c(c1)OCCO2 | active |
| CCOc1ccccc1NC1c2ccccc2C(=O)N1c1ccc(C)cn1 (configuration not stated) | active |
| O=C(Nc1ccccc1N1CCCCC1)c1ccccc1F | active |
| COCCn1c(SC(C(=O)Nc2cc(C)ccc2OC)c2ccccc2)nnc1-c1ccc(Cl)cc1 (configuration not stated) | active |
| CC(C)Cc1nc(N2CCCCC2)c(C#N)c2c1CCC2 | active |
| CC(C)OC(=O)c1c(NC(=O)CCn2nnc3ccccc32)sc2c1CCCC2 | active |
| CC1CCN(c2ccccc2NC(=O)c2ccc(C#N)cc2F)CC1 | active |
| Cc1ccc(C(=O)c2c(NC(=O)c3ccncc3)sc3c2CCCC3)cc1 | active |
| CCOC(=O)c1c(NC(=O)c2cccs2)sc(C)c1CC | active |

Same assay, conditions: EP2-expressing cells, PGE2 EC50 shift by compound; measured here: PGE2 EC50 at 6.7 uM compound

| Structure (SMILES) | PGE2 EC50 with compound |
| --- | --- |
| Cc1sc(NC(=O)Cc2ccc3c(c2)OCO3)nc1-c1ccc2c(c1)CCN2C(=O)c1cccc(F)c1 | 0.97 nM |
| Cc1ccc(S(=O)(=O)NCC(=O)OCN2C(=O)c3ccccc3C2=O)cc1 | 1.01 nM |
| N#Cc1c(-c2ccco2)nc(SCC(=O)Nc2cccc(Cl)c2)[nH]c1=O | 1.15 nM |
| Cc1ccc(-c2nnn(CC(=O)N(Cc3cccs3)C(C(=O)NC3CCCC3)c3ccncc3)n2)cc1 (configuration not stated) | 0.72 nM |
| CCc1ccc(C2=Nn3c(nnc3-c3cccs3)SC2)cc1 | 1.43 nM |
| CC(Sc1ccc2ccccc2n1)C(=O)O (configuration not stated) | 3.1 nM and 3.84 nM |
| O=C(c1ccc(Cl)cc1)c1oc2ccccc2c1CS(=O)(=O)c1ccccc1 | 2.88 nM |
| O=C(c1cc(-c2ccccn2)nc2ccc(Br)cc12)N1CCc2ccccc2C1 | 1.06 nM |
| CCOc1nc2cccc(C(=O)OC(C)OC(=O)OC3CCCCC3)c2n1Cc1ccc(-c2ccccc2-c2nn[nH]n2)cc1 (configuration not stated) | 1.42 nM |
| O=C(O)c1nn(CC(=O)N(C2CCCCC2)C2CCCCC2)c(=O)c2ccccc12 | 1.12 nM |
| C=CCn1c(=O)c(C(=O)NCCc2ccccc2)c(O)c2ccccc21 | 2.43 nM |
| CC(=O)OCC(=O)[C@@]12OC(C)(C)O[C@@H]1C[C@H]1[C@H]3CC=C4C[C@@H](O)CC[C@]4(C)[C@@H]3CC[C@@]12C | 0.97 nM |
| CN(C)c1oc(-c2ccccc2Cl)nc1P(=O)(c1ccccc1)c1ccccc1 | 1.17 nM |
| Cc1ccc(C)n1-c1sc2c(c1C#N)CCCC2 | 2.65 nM |
| CCCCOC(=O)Sc1nc2ccccc2o1 | 2.48 nM |
| CCOC(=O)CCN(Cc1sccc1C)S(=O)(=O)c1ccc(F)cc1 | 1.15 nM |
| COc1cccc(/C=N/c2oc(-c3ccccc3)cc2C#N)c1O | 1.17 nM |
| CC(C)(C)c1nc2ccccc2c(=O)n1N1C(=O)c2ccccc2C1=O | 0.82 nM |
| O=S(=O)(O)c1ccc2c(N=Nc3c(O)ccc4ccccc34)cccc2c1 | 1.28 nM |
| CC(=O)N1c2ccccc2C(C)CC12CCCCC2 (configuration not stated) | 2.48 nM |
| O=C(/C(=C/O)N=Nc1ccccc1Cl)c1ccccc1 | 2.68 nM |
| CCC(=O)Oc1ccc2c(C)cc(=O)oc2c1C(=O)c1ccccc1 | 1 nM |

| Structure (SMILES) | PGE2 EC50 with compound |
| --- | --- |
| CN(/N=C\c1ccc(O)c(O)c1)c1nc(-c2ccccc2)cc(-c2ccccc2)n1 | 1.22 nM |
| COC(=O)C1C(c2ccccc2)C(C(=O)OCc2ccco2)C1c1ccccc1 (configuration not stated) | 2.61 nM |
| CCCn1c(SCC(=O)Nc2sc(C)c(C)c2C(=O)OCC)nc2c1c(=O)n(C)c(=O)n2C | 1.35 nM |
| COc1cc(-c2nc(-c3cccc(C)c3)no2)cc(OC)c1OC | 1.14 nM |
| O=C(Nc1ccccc1-c1nc2ccccc2s1)c1ccc(Br)o1 | 1.02 nM |
| Cc1noc2ncnc(Sc3c(Cl)cccc3Cl)c12 | 0.75 nM |
| CCN(CC)CCN1C(=O)c2cccc3cc(N)cc(c23)C1=O | 2.64 nM |
| COC(=O)c1c(NC(=S)NN2CCOCC2)sc2c1CCCC2 | 0.9 nM |
| COc1ccc(-c2cc(C(F)(F)F)nc(N3CCOCC3)n2)cc1OC | 1.53 nM |
| Cc1c(C(=O)Nc2cccc3cccnc23)oc2ccccc12 | 0.72 nM |
| COc1cccc(OCC(=O)Nc2ccccc2-c2ccccc2)c1 | 1.17 nM |
| S=c1[nH]nc(-c2ccccc2)n1/N=C/c1ccc(-c2ccccc2Cl)o1 | 2.43 nM |
| CCOC(=O)c1c(NC(=O)CSc2nnc(C)s2)sc2c1CCC(C)C2 (configuration not stated) | 0.95 nM |
| CCc1ccc(Nc2oc(C)cc(=O)c2C(C)=O)cc1 | 1.55 nM |
| COc1ccccc1C1c2[nH]c3ccccc3c2CCN1Cc1cnc(C)s1 (configuration not stated) | 1.59 nM |
| CCOC(=O)c1sc2nccc(N(C)C)c2c1N=CNOCc1ccccc1 | 1.25 nM |
| COCCNC(=O)C(c1ccc(F)cc1)N(CC1CCCO1)C(=O)CCC(=O)Nc1ccccn1 (configuration not stated) | 2.09 nM |
| c1ccc(Oc2nc3ccccc3n3cccc23)cc1 | 0.86 nM |
| Cc1cc(C#N)c(SCC(N)=O)nc1-c1ccc(F)cc1 | 1.4 nM |
| CCOC(=O)c1cnn(-c2nc(-c3ccc(F)cc3)cs2)c1C(F)(F)F | 1.04 nM |
| CC(=O)Nc1nnc(CCN2CCCCC2)s1 | 1.46 nM |
